How the values were obtained:
rat duodenum = assay: in vitro sac permeation study, rat duodenum; conditions: for Papp Ratio (SNP/CTRL): SNP 3 mM pretreatment
Protocol: (§1) Animal experimental protocols (approval codes: P18-30, P19-09, and P20-14) were carried out in accordance with the Ethical Committee of Tokyo University of Pharmacy and Life Sciences. Male Wistar rats (8 weeks old) were obtained from Tokyo Laboratory Animals Science Co., Ltd. (Tokyo, Japan). Permeation studies of lipophilic drugs were carried out using the in vitro sac method, as previously described.
(§2) Based on these concentrations, the apparent permeability coefficients (Papp) of each test compound were calculated according to the following Equation (1):(1) Pappcm/s=dQ/dt×1/C0S where: • dQ/dt—the flux of the test compound in the serosal side, • C0—the initial concentration in the mucosal side, • S—the surface area of the intestinal lumen.

[1] = in vitro sac permeation study, rat duodenum; conditions: male, Wistar, rat, 200 μM test compound
Protocol: as §1, §2

[2] = in vitro sac permeation study, rat jejunum; conditions: male, Wistar, rat, 200 μM test compound
Protocol: (§3) Animal experimental protocols (approval codes: P18-30, P19-09, and P20-14) were carried out in accordance with the Ethical Committee of Tokyo University of Pharmacy and Life Sciences. Male Wistar rats (8 weeks old) were obtained from Tokyo Laboratory Animals Science Co., Ltd. (Tokyo, Japan). Permeation studies of lipophilic drugs were carried out using the in vitro sac method, as previously described. […] The serosal samples were collected at 0, 10, 20, 30, 40, 60, 90, and 120 min after administration, and analyzed using a reversed-phase HPLC system (LC-2000Plus; JASCO Co., Tokyo, Japan) or fluorescence microplate reader to determine the concentration of each test compound [15].
as §2

rat jejunum = assay: in vitro sac permeation study, rat jejunum; conditions: SNP 3 mM pretreatment
Protocol: as §3, §2

[3] = in vitro sac permeation study, rat ileum; conditions: male, Wistar, rat, 200 μM test compound
Protocol: as §3, §2

rat ileum = assay: in vitro sac permeation study, rat ileum; conditions: SNP 3 mM pretreatment
Protocol: as §3, §2

[4] = in vitro sac permeation study, rat colon; conditions: male, Wistar, rat, 200 μM test compound
Protocol: as §3, §2

rat colon = assay: in vitro sac permeation study, rat colon; conditions: SNP 3 mM pretreatment
Protocol: as §3, §2

[5] = Papp SNP, pretreated with SNP 3 mM for 60 min

O[C@@H](CS)[C@@H](O)CS (racemic) [DTT, dithiothreitol]
effect on the SNP enhancement of griseofulvin permeability (rat duodenum; DTT 10 mM for 10 min before SNP 3 mM): visibly disappeared
effect of pretreatment on flurbiprofen permeation (rat duodenum; SNP 3 mM 60 min, DTT 10 mM 10 min): increased
effect of pretreatment on griseofulvin permeation (rat duodenum; SNP or SFC 3 mM 60 min, DTT 10 mM 10 min): increased

CC(C(=O)O)c1ccc(-c2ccccc2)c(F)c1 (centres unmarked) [Flurbiprofen]
Papp at 120 min, 200 μM ([1]; Papp CTRL, SNP-untreated): 5.8 ± 1.7 ×10⁻⁶ cm/s
Papp at 120 min, 200 μM [1, 5]: 13 ± 2.7 ×10⁻⁶ cm/s
Papp Ratio (SNP/CTRL) (rat duodenum): 2.24
Papp at 120 min, 200 μM ([2]; Papp CTRL, SNP-untreated): 26 ± 11.9 ×10⁻⁶ cm/s
Papp at 120 min, 200 μM [2, 5]: 32.7 ± 12.9 ×10⁻⁶ cm/s
Papp Ratio (SNP/CTRL) (rat jejunum): 1.26
Papp at 120 min, 200 μM ([3]; Papp CTRL, SNP-untreated): 33.9 ± 11.3 ×10⁻⁶ cm/s
Papp at 120 min, 200 μM [3, 5]: 39.8 ± 17.7 ×10⁻⁶ cm/s
Papp Ratio (SNP/CTRL) (rat ileum): 1.17
Papp at 120 min, 200 μM ([4]; Papp CTRL, SNP-untreated): 28.3 ± 2.5 ×10⁻⁶ cm/s
Papp at 120 min, 200 μM [4, 5]: 19.4 ± 3.7 ×10⁻⁶ cm/s
Papp Ratio (SNP/CTRL) (rat colon): 0.69

COC1=CC(=O)C[C@@H](C)[C@]12Oc1c(Cl)c(OC)cc(OC)c1C2=O [Griseofulvin]
Papp at 120 min, 200 μM ([1]; Papp CTRL, SNP-untreated): 8 ± 4.2 ×10⁻⁶ cm/s
Papp at 120 min, 200 μM [1, 5]: 19.6 ± 4.1 ×10⁻⁶ cm/s
Papp Ratio (SNP/CTRL) (rat duodenum): 2.45
Papp at 120 min, 200 μM ([2]; Papp CTRL, SNP-untreated): 42.2 ± 20 ×10⁻⁶ cm/s
Papp at 120 min, 200 μM [2, 5]: 70.3 ± 19.2 ×10⁻⁶ cm/s
Papp Ratio (SNP/CTRL) (rat jejunum): 1.67
Papp at 120 min, 200 μM ([3]; Papp CTRL, SNP-untreated): 24.3 ± 6 ×10⁻⁶ cm/s
Papp at 120 min, 200 μM [3, 5]: 18.4 ± 4.4 ×10⁻⁶ cm/s
Papp Ratio (SNP/CTRL) (rat ileum): 0.76
Papp at 120 min, 200 μM ([4]; Papp CTRL, SNP-untreated): 39.6 ± 21.4 ×10⁻⁶ cm/s
Papp at 120 min, 200 μM [4, 5]: 31.7 ± 11.1 ×10⁻⁶ cm/s
Papp Ratio (SNP/CTRL) (rat colon): 0.80

CC(C)NCC(O)COc1cccc2ccccc12 (centres unmarked) [Propranolol]
Papp at 120 min, 200 μM ([1]; Papp CTRL, SNP-untreated): 1.1 ± 0.6 ×10⁻⁶ cm/s
Papp at 120 min, 200 μM [1, 5]: 1.3 ± 0.7 ×10⁻⁶ cm/s
Papp Ratio (SNP/CTRL) (rat duodenum): 1.18
Papp at 120 min, 200 μM ([2]; Papp CTRL, SNP-untreated): 4.7 ± 1 ×10⁻⁶ cm/s
Papp at 120 min, 200 μM [2, 5]: 4.3 ± 1.8 ×10⁻⁶ cm/s
Papp Ratio (SNP/CTRL) (rat jejunum): 0.91
Papp at 120 min, 200 μM ([3]; Papp CTRL, SNP-untreated): 3.7 ± 1 ×10⁻⁶ cm/s
Papp at 120 min, 200 μM [3, 5]: 3.9 ± 1 ×10⁻⁶ cm/s
Papp Ratio (SNP/CTRL) (rat ileum): 1.05
Papp at 120 min, 200 μM ([4]; Papp CTRL, SNP-untreated): 2.1 ± 1.1 ×10⁻⁶ cm/s
Papp at 120 min, 200 μM [4, 5]: 3.5 ± 1.6 ×10⁻⁶ cm/s
Papp Ratio (SNP/CTRL) (rat colon): 1.67

CC1(C)N([O])C(c2ccc(C(=O)O)cc2)=[N+]([O-])C1(C)C [c-PTIO, Carboxy-PTIO]
effect on the SNP enhancement of griseofulvin permeability (rat duodenum; c-PTIO 1 mM co-pre-treated with SNP 3 mM): inhibited
effect on the SNP-increased FD-4 permeation (rat duodenum; c-PTIO 1 mM with SNP 3 mM): disappeared

From article PMC8587071, “Utilization of Sodium Nitroprusside as an Intestinal Permeation Enhancer for Lipophilic Drug Absorption Improvement in the Rat Proximal Intestine” (Molecules, 2021)
